Measured values reported in patent US20230201113A1, “IMMUNE BOOSTER - SUPPLEMENT TREATMENT KIT AND METHODS OF USE” (priority 2020, published 2023).

Tested on: SARS-CoV-2
Format: in vivo
Settings: of the 50 subjects in the control group

In the case of “hydroxychloroquine [Placebo + hydroxychloroquine]”, the “subjects resolved from positive to negative through PCR testing after ten days” value is reported as 9 subjects.
